Laboratory results from US20160177259A1, “[…]” (Evonik Degussa GmbH, priority 2014, published 2016).

Test system: Clostridium ljungdahlii
Test: Formation of acetic acid and ethanol from synthesis gas in CGF1 mineral medium with refeeding of cysteine (Example 3)
Type: cell-based
Procedure: For the biotransformation of hydrogen and carbon dioxide to acetic acid and ethanol the homoacetogenic bacterium Clostridium ljungdahlii was cultivated on synthesis gas with refeeding of cysteine. All cultivation steps were carried out under anaerobic conditions in pressure-resistant glass bottles that can be closed airtight with a butyl rubber stopper.
The chemolithoautotrophic cultivation was carried out in a 1 L pressure-resistant glass bottle at 37° C., 100 rpm and a ventilation rate of 3 L/h with a premixed gas with 67% H2, 33% CO2 in an open water bath shaker for 69 h till OD600nm>0.4. The gas was discharged into the medium through a sparger with a pore size of 10 μm, which was mounted in the center of the reactors. Then the cell suspension was centrifuged and the cell pellet was resuspended in fresh CGF1 mineral medium as disclosed below.
For the production phase, as many washed cells from the preculture of C. ljungdahlii as necessary for an OD600nm of 0.2 were added to 100 ml mineral medium (CGF1 medium, pH 6.5, 1.4 g/L KOH, 2 g/L (NH4)2SO4, 1 g/L KH2PO4, 1 g/L K2HPO4, 10 mg/L FeSO4 X 7 H2O, 3.8 mg/L MnSO4 X 1 H2O, 246 mg/L MgSO4×7 H2O, aerated for 30 min with a premixed gas with 67% H2 and 33% CO2). […] The cultivation was carried out in 500 mL pressure-resistant glass bottles at 37° C., 150 rpm in an open water bath shaker for 163 h which were aerated to an overpressure of 0.8 bar with a premixed gas with 67% H2, 33% CO2 one time a day. The pH was held >5.0 by intermittent additions of a 140 g/L KOH solution. During the cultivation several 5 mL samples were taken to determinate OD600nm, pH and product formation. […] The determination of the product concentrations including the L-Cysteine concentration was performed by semiquantitative ^1H-NMR spectroscopy. As an internal quantification standard sodium trimethylsilylpropionate (T(M)SP) was used.

[1] = culture A, 400 mg/L L-cysteine-hydrochloride at start, no refeed, 0 h
[2] = culture A, 400 mg/L L-cysteine-hydrochloride at start, no refeed, 18.75 h
[3] = culture A, 400 mg/L L-cysteine-hydrochloride at start, no refeed, 41.5 h
[4] = culture A, 400 mg/L L-cysteine-hydrochloride at start, no refeed, 46.75 h
[5] = culture A, 400 mg/L L-cysteine-hydrochloride at start, no refeed, 65.5 h
[6] = culture A, 400 mg/L L-cysteine-hydrochloride at start, no refeed, 69.5 h
[7] = culture A, 400 mg/L L-cysteine-hydrochloride at start, no refeed, 89.75 h
[8] = culture A, 400 mg/L L-cysteine-hydrochloride at start, no refeed, 163.5 h
[9] = culture B, 200 mg/L L-cysteine-hydrochloride at start, no refeed, 0 h
[10] = culture B, 200 mg/L L-cysteine-hydrochloride at start, no refeed, 18.75 h
[11] = culture B, 200 mg/L L-cysteine-hydrochloride at start, no refeed, 41.5 h
[12] = culture B, 200 mg/L L-cysteine-hydrochloride at start, no refeed, 46.75 h
[13] = culture B, 200 mg/L L-cysteine-hydrochloride at start, no refeed, 65.5 h
[14] = culture B, 200 mg/L L-cysteine-hydrochloride at start, no refeed, 69.5 h
[15] = culture B, 200 mg/L L-cysteine-hydrochloride at start, no refeed, 89.75 h
[16] = culture B, 200 mg/L L-cysteine-hydrochloride at start, no refeed, 163.5 h
[17] = culture C, 200 mg/L L-cysteine-hydrochloride at start, re-fed 200 mg/L after 18, 41, 65, 89 h, 0 h
[18] = culture C, 200 mg/L L-cysteine-hydrochloride at start, re-fed 200 mg/L after 18, 41, 65, 89 h, 18.75 h
[19] = culture C, 200 mg/L L-cysteine-hydrochloride at start, re-fed 200 mg/L after 18, 41, 65, 89 h, 41.5 h
[20] = culture C, 200 mg/L L-cysteine-hydrochloride at start, re-fed 200 mg/L after 18, 41, 65, 89 h, 46.75 h
[21] = culture C, 200 mg/L L-cysteine-hydrochloride at start, re-fed 200 mg/L after 18, 41, 65, 89 h, 65.5 h
[22] = culture C, 200 mg/L L-cysteine-hydrochloride at start, re-fed 200 mg/L after 18, 41, 65, 89 h, 69.5 h
[23] = culture C, 200 mg/L L-cysteine-hydrochloride at start, re-fed 200 mg/L after 18, 41, 65, 89 h, 89.75 h
[24] = culture C, 200 mg/L L-cysteine-hydrochloride at start, re-fed 200 mg/L after 18, 41, 65, 89 h, 95.5 h
[25] = culture C, 200 mg/L L-cysteine-hydrochloride at start, re-fed 200 mg/L after 18, 41, 65, 89 h, 163.5 h

Cl.N[C@@H](CS)C(=O)O [L-Cysteine-HCl, L-cysteine hydrochloride]
Acetate [1]: 34.0 mg/L
Ethanol [1]: 2.0 mg/L
OD (600 nm) [1]: 0.206
Acetate [2]: 1400.0 mg/L
Ethanol [2]: 60.0 mg/L
OD (600 nm) [2]: 0.232
Acetate [3]: 2550 mg/L
Ethanol [3]: 420 mg/L
OD (600 nm) [3]: 0.293
Acetate [4]: 2700 mg/L
Ethanol [4]: 480 mg/L
OD (600 nm) [4]: 0.281
Acetate [5]: 3500 mg/L
Ethanol [5]: 580 mg/L
OD (600 nm) [5]: 0.324
Acetate [6]: 3700 mg/L
Ethanol [6]: 650 mg/L
OD (600 nm) [6]: 0.366
Ethanol [7]: 580.0 mg/L
OD (600 nm) [7]: 0.324
Acetate [8]: 6100.0 mg/L
Ethanol [8]: 670.0 mg/L
OD (600 nm) [8]: 0.339
Acetate [9]: 35.0 mg/L
Ethanol [9]: 1.9 mg/L
OD (600 nm) [9]: 0.197
Acetate [10]: 1400.0 mg/L
Ethanol [10]: 100.0 mg/L
OD (600 nm) [10]: 0.261
Acetate [11]: 2150 mg/L
Ethanol [11]: 580 mg/L
OD (600 nm) [11]: 0.279
Acetate [12]: 2200 mg/L
Ethanol [12]: 630 mg/L
OD (600 nm) [12]: 0.269
Acetate [13]: 2200 mg/L
Ethanol [13]: 600 mg/L
OD (600 nm) [13]: 0.271
Acetate [14]: 2200 mg/L
Ethanol [14]: 590 mg/L
OD (600 nm) [14]: 0.259
Acetate [15]: 2350.0 mg/L
Ethanol [15]: 560.0 mg/L
OD (600 nm) [15]: 0.241
Acetate [16]: 2550.0 mg/L
Ethanol [16]: 570.0 mg/L
OD (600 nm) [16]: 0.237
cell growth (culture C (re-fed) compared with cultures A and B): stronger cell growth
concentrations of acetate and ethanol (culture C (re-fed) compared with cultures A and B, production phase): increased more
Acetate [17]: 27.0 mg/L
Ethanol [17]: 2.0 mg/L
OD (600 nm) [17]: 0.209
Acetate [18]: 1400.0 mg/L
Ethanol [18]: 85.0 mg/L
OD (600 nm) [18]: 0.245
Acetate [19]: 3000 mg/L
Ethanol [19]: 510 mg/L
OD (600 nm) [19]: 0.339
Acetate [20]: 3250 mg/L
Ethanol [20]: 580 mg/L
OD (600 nm) [20]: 0.335
Ethanol [21]: 790 mg/L
OD (600 nm) [21]: 0.399
Ethanol [22]: 860 mg/L
OD (600 nm) [22]: 0.392
Acetate [23]: 5000.0 mg/L
Ethanol [23]: 810.0 mg/L
OD (600 nm) [23]: 0.431
Acetate [24]: 5600.0 mg/L
Ethanol [24]: 880.0 mg/L
OD (600 nm) [24]: 0.434
Acetate [25]: 7700.0 mg/L
Ethanol [25]: 960.0 mg/L
OD (600 nm) [25]: 0.481
